The values that follow come from US20230143612A1 (Arbutus Biopharma Corporation, priority 2020, published 2023).

pIC50: −log10 of the molar value.

Sequence of PD-L1 His protein / PD-1 Fc protein (Q9NZQ7 19-238 limits assumed): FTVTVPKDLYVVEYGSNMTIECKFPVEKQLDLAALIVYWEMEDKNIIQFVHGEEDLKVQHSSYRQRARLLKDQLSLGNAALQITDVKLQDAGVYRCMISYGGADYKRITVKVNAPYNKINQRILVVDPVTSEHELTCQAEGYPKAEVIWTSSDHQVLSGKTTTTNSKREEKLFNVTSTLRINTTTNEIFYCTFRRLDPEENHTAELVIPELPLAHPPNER

For this assay, the target named is PD-L1 His protein / PD-1 Fc protein (Homo sapiens, UniProt Q9NZQ7). Briefly: HTRF Assay (PD-1/PD-L1 interaction). Type of assay: binding. As to conditions: PD-L1 His 6 nM, PD-1 Fc 6 nM. On the procedure:
PD-L1 His protein was prepared and added at the final concentration of 6 nM in the White opaque 384 well plate (Corning cat #3824BC). PD-L1 small molecule inhibitors were diluted by 3-fold starting from 20 μM and a final concentration of 0.001 μM and added to the well. PD-1 Fc protein was added at the final concentration of 6 nM. PD-L1 His protein, PD-L1 small molecule inhibitors, and PD1 Fc proteins were added to the well in this order, with each 5 μl volume, and were incubated for 15 minutes at room temperature. PAb anti-Human IgG-XL665 (Cisbio, cat #61HFCXLA) and Mab anti-6HIS Tb cryptate Gold (Cisbio, cat #61HI2TLA) were mixed at 6.7 nM and 0.35 nM respectively, and total 5 μl volume of mixture was added to the well and incubated at room temperature for 1 hour. The plate was read using PerkinElmer Envision plate reader and data was analyzed by Prism 6 software.
In turn, `COc1nc(-c2cccc(-c3cccc(-c4ccn5c(=O)c(CN[C@H]6C[C@](C)(O)C6)c(C)nc5c4)c3Cl)c2Cl)ccc1CNC[C@@H]1CCC(=O)N1` [Example 204, 8-(2,2′-Dichloro-3′-(6-methoxy-5-(((((S)-5-oxopyrrolidin-2-yl)methyl)amino)methyl)pyridin-2-yl)-[1,1′-biphenyl]-3-yl)-3-((((1r,3r)-3-hydroxy-3-methylcyclobutyl)amino)methyl)-2-methyl-4H-pyrido[1,2-a]pyrimidin-4-one] gave a pIC50 of 10.00.
In the case of `COc1nc(-c2cccc(-c3cccc(-c4ccn5c(=O)c(CNC[C@@H]6CCC(=O)N6)cnc5c4)c3Cl)c2Cl)ccc1CNCC(=O)O` [Example 125, (S)-((6-(2,2′-Dichloro-3′-(4-oxo-3-((((5-oxopyrrolidin-2-yl)methyl)amino)methyl)-4H-pyrido[1,2-a]pyrimidin-8-yl)-[1,1′-biphenyl]-3-yl)-2-methoxypyridin-3-yl)methyl)glycine], the pIC50 was 9.15. This pIC50 is 0.85 log units lower than that of the molecule before.
The result for `COc1nc(-c2cccc(-c3cccc(-c4ccn5c(=O)c(CN6CC7(CC(O)C7)C6)cnc5c4)c3Cl)c2Cl)ccc1CNC[C@@H]1CCC(=O)N1` [Example 346, (S)-8-(2,2′-Dichloro-3′-(6-methoxy-5-((((5-oxopyrrolidin-2-yl)methyl)amino)methyl)pyridin-2-yl)-[1,1′-biphenyl]-3-yl)-3-((6-hydroxy-2-azaspiro[3.3]heptan-2-yl)methyl)-4H-pyrido[1,2-a]pyrimidin-4-one] reads 5.89.
Molecule `COc1nc(-c2cccc(-c3cccc(-c4ccn5c(=O)c(CNC[C@H]6CNC(=O)C6)cnc5c4)c3Cl)c2Cl)ccc1CNC[C@@H]1CCC(=O)N1` [Example 284, 8-(2,2′-Dichloro-3′-(6-methoxy-5-(((((S)-5-oxopyrrolidin-2-yl)methyl)-amino)methyl)-pyridin-2-yl)-[1,1′-biphenyl]-3-yl)-3-(((((S)-5-oxopyrrolidin-3-yl)methyl)amino)methyl)-4H-pyrido[1,2-a]pyrimidin-4-one] showed a negative-log IC50 (pIC50) of 10.00.
The result for `COc1nc(-c2cccc(-c3cccc(-c4cc5c(=O)n(C)c(CNC[C@@H](O)CC(=O)N(C)C)nn5c4)c3Cl)c2Cl)ccc1CNC[C@@H]1CCC(=O)N1` [Example 481, (S)-4-(((6-(2,2′-Dichloro-3′-(6-methoxy-5-(((((S)-5-oxopyrrolidin-2-yl)methyl)amino)methyl)pyridin-2-yl)-[1,1′-biphenyl]-3-yl)-3-methyl-4-oxo-3,4-dihydropyrrolo[2,1-f][1,2,4]triazin-2-yl)methyl)amino)-3-hydroxy-N,N-dimethylbutanamide] reads 7.38.
For `O=C1CC[C@@H](CNCc2cnc3cc(-c4cccc(-c5cccc(-c6ccn7c(=O)c(CNC[C@@H]8CCC(=O)N8)cnc7c6)c5Cl)c4Cl)ccn3c2=O)N1` [Example 48, (S)-8,8′-(2,2′-Dichloro-[1,1′-biphenyl]-3,3′-diyl)bis(3-(((((S)-5-oxopyrrolidin-2-yl)methyl)amino)methyl)-4H-pyrido[1,2-a]pyrimidin-4-one)] the value was 8.15.
For `Cc1c(COc2cc(OCc3cncc(C#N)c3)c(CNC[C@@H]3CCC(=O)N3)cc2Cl)cccc1-c1cccc(-c2ccn3c(=O)c(CNC[C@@H]4CCC(=O)N4)cnc3c2)c1C` [Example 12, 5-((4-Chloro-5-((2,2′-dimethyl-3′-(4-oxo-3-(((((S)-5-oxopyrrolidin-2-yl)methyl)amino)methyl)-4H-pyrido[1,2-a]pyrimidin-8-yl)-[1,1′-biphenyl]-3-yl)methoxy)-2-(((((S)-5-oxopyrrolidin-2-yl)methyl)amino)methyl)phenoxy)methyl)nicotinonitrile] the value was 9.52; for `COc1nc(-c2cccc(-c3cccc(-c4cnc5c(CNC[C@@H]6CCC(=O)N6)cn(C)c5c4)c3Cl)c2Cl)ccc1CNC[C@@H]1CCC(=O)N1` [Example 375, (S)-5-((((6-(2,2′-Dichloro-3′-(1-methyl-3-(((((S)-5-oxopyrrolidin-2-yl)methyl)amino)methyl)-1H-pyrrolo[3,2-b]pyridin-6-yl)-[1,1′-biphenyl]-3-yl)-2-methoxypyridin-3-yl)methyl)amino)methyl)pyrrolidin-2-one], 6.74.

For orientation: pIC50 means −log10 of the IC50, conventionally taken in molar units. A low value points to a large IC50.
